Results as given in patent US8669266B2, “Quinoline-carboxamide derivatives as P2Y12 antagonists” (Sanofi, priority 2007, dated 2014).

Legend:
[1] = system: human platelet rich plasma; experiment: Inhibition of human platelet aggregation, "Born"-method in single cuvettes (ADP-induced, platelet rich plasma); format: cell-based; conditions: human PRP, aggregation induced by ADP, measured over 6 minutes at 37° C.
Description: Alternatively to a binding assay which measures a compound's ability to bind to the P2Y12 receptor, the effect on cellular function was also determined. This ability of the compound was evaluated in two platelet aggregation assays: in 96-well plates and with the “Born”-method using single cuvettes.
Whole blood was collected from healthy volunteers using 20 ml syringes containing 2 ml of buffered Citrate. The anticoagulated whole blood was transferred into 15 ml polypropylene conical tubes (10 ml per tube). The tubes were centrifuged for 15 minutes at 340×g at RT without using the centrifuge brake. This procedure leads to a pellet of cellular components and a supernatant of platelet rich plasma (PRP). The PRP layer was collected from each tube and pooled for each donor. To avoid carry over of cellular components following centrifugation, approximately 5 ml of PRP was left in the tube. The platelet concentration was determined using a Coulter Counter.
The 15 ml tubes containing the pellet of cellular components were centrifuged again for 10 minutes at 1940×g. This pelleted out most particulate blood constituents remaining, leaving a layer of Platelet Poor Plasma (PPP). The PPP was collected for each donor. The PRP layer, previously set aside, was diluted with PPP to a final concentration of approximately 3×E8 platelets/ml with the PPP.
The human platelet aggregation assay is performed in single use cuvettes using the platelet aggregation profiler (PAP-4 or -8, Bio/Data corporation).
In the assay cuvette 4 μl of test compound at 100× final concentration in DMSO is mixed with 392 μl fresh PRP and incubated for 2 minutes at 37° C. with 1.200 rpm stirring. Following that incubation period, 4 μl of 250 μM ADP is added to the reaction mix. This addition of ADP is sufficient to induce aggregation in the absence of an inhibitor. After that aggregation is measured over 6 minutes at 37° C. with 1.200 rpm stirring. Results of the assay are expressed as % inhibition, and are calculated using maximum aggregation (Tmax) or area under curve (AUC) of the absorbance over 6 minutes.

human P2Y12 receptor = human P2Y12 receptor (Homo sapiens (Human), UniProt Q9H244); experiment: Human P2Y12 recombinant cell membrane binding assay with 33P 2MeS-ADP; conditions: CHO cell membranes with recombinant human P2Y12; competition against 33P 2MeS-ADP
Sequence of human P2Y12 receptor (Q9H244 whole entry): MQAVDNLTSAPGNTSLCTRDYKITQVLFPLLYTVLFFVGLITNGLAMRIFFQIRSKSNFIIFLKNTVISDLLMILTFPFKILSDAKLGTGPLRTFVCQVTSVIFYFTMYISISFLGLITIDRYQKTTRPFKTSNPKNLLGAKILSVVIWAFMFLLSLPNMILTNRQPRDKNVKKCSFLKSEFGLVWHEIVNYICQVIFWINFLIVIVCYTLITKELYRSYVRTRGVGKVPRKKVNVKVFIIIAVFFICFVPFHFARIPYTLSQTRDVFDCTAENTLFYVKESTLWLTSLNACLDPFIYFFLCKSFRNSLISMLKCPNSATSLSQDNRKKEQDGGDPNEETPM
Description: The ability of the compounds of the formula I to inhibit the P2Y12 receptor can be assessed by determining the concentration of the compound of the formula I that binds to the human P2Y12 Recombinant Cell Membrane Binding Assay with 33P 2MeS-ADP.
Human P2Y12 Recombinant Cell Membrane Binding Assay
The ability of a test compound to bind to the P2Y12 receptor was evaluated in a recombinant cell membrane binding assay. In this competitive binding assay, the test compound competed against a radiolabeled agonist for binding to the P2Y12 receptor, expressed on the cell membrane. Inhibition of binding of the labeled material was measured and correlated to the amount and potency of the test compound.
As source of P2Y12, a membrane preparation was prepared from Chinese Hamster Ovary (CHO) cells with recombinant expression of the human P2Y12 receptor according to standard procedures.
Next, wells were washed four times with 400 μl/well of stop buffer on a plate vacuum. The plate was disassembled and allowed to air dry overnight with the filter side up over night. […] The top of the filter plate was sealed with plastic plate covers. The sealed filter plate were incubated 2 hours at RT. A Microbeta Scintillation Counter was used to measure counts.
Compounds were diluted as 10 mM DMSO stocks and tested in a four-point, five-fold dilution series run in triplicate beginning at 10 μM, final concentration. Data were analyzed using a four-parameter curve fit with a fixed minimum and maximum experimentally defined as the average positive and negative controls on each plate.

Compound | IC50 ([1]; Platelet, 0.1 h) | also measured
4-{2-[(7-Methyl-4-{2-oxo-2-[4-(pyrrolidine-1-carbonyl)-piperidin-1-yl]-ethoxy}-quinoline-2-carbonyl)-amino]-acetyl}-piperazine-1-carboxylic acid butyl ester [Example 660] |  | IC50 [1]: 94 nM
CCOC(=O)N1CCN(C(=O)[C@H](CCC(=O)O)NC(=O)c2cc(OCC(=O)N3CCC[C@H]3C(=O)NC3CC3)c3ccc(C)cc3n2)CC1 [Example 3, 4-[(S)-4-Carboxy-2-({4-[2-((S)-2-cyclopropylcarbamoyl-pyrrolidin-1-yl)-2-oxo-ethoxy]-7-methyl-quinoline-2-carbonyl}-amino)-butyryl]-piperazine-1-carboxylic acid ethyl ester] | 180 nM | 
CCOC(=O)[C@@H]1CCCN1C(=O)COc1cc(C(=O)N[C@@H](CCC(=O)O)C(=O)N2CCN(C(=O)OCC)CC2)nc2cc(C)ccc12 [Example 11, 4-[(S)-4-Carboxy-2-({4-[2-((S)-2-ethoxycarbonyl-pyrrolidin-1-yl)-2-oxo-ethoxy]-7-methyl-quinoline-2-carbonyl}-amino)-butyryl]-piperazine-1-carboxylic acid ethyl ester] |  | IC50 (human P2Y12 receptor): 132 nM
CCOC(=O)N1CCN(C(=O)[C@H](CCC(=O)O)NC(=O)c2cc(OCC(=O)N3CCC[C@H]3C(=O)O)c3ccc(C)cc3n2)CC1 [Example 17, 4-[(S)-4-Carboxy-2-({4-[2-((S)-2-carboxy-pyrrolidin-1-yl)-2-oxo-ethoxy]-7-methyl-quinoline-2-carbonyl}-amino)-butyryl]-piperazine-1-carboxylic acid ethyl ester] | 240 nM | 
CCOC(=O)N1CCN(C(=O)[C@H](CCC(=O)O)NC(=O)c2cc(OCC(=O)N3CCC(S(C)(=O)=O)C3)c3ccc(C)cc3n2)CC1 (stereo partly drawn) [Example 18, 4-[(S)-4-Carboxy-2-({4-[2-(3-methanesulfonyl-pyrrolidin-1-yl)-2-oxo-ethoxy]-7-methyl-quinoline-2-carbonyl}-amino)-butyryl]-piperazine-1-carboxylic acid ethyl ester] | 160 nM | 
CCOC(=O)N1CCN(C(=O)[C@H](CCC(=O)O)NC(=O)c2cc(OCC(=O)N3CC[C@H](CO)C3)c3ccc(C)cc3n2)CC1 [Example 50, 4-[(S)-4-Carboxy-2-({4-[2-((S)-3-hydroxymethyl-pyrrolidin-1-yl)-2-oxo-ethoxy]-7-methyl-quinoline-2-carbonyl}-amino)-butyryl]-piperazine-1-carboxylic acid ethyl ester] | 590 nM | 
CCOC(=O)N1CCN(C(=O)[C@H](CCC(=O)O)NC(=O)c2cc(OCC(=O)N3CC(O)CC3C(=O)OC)c3ccccc3n2)CC1 (stereo partly drawn) [Example 71, 4-[(S)-4-Carboxy-2-({4-[2-(4-hydroxy-2-methoxycarbonyl-pyrrolidin-1-yl)-2-oxo-ethoxy]-quinoline-2-carbonyl}-amino)-butyryl]-piperazine-1-carboxylic acid ethyl ester] | 310 nM | 
CCOC(=O)[C@@H]1C[C@@H](O)CN1C(=O)COc1cc(C(=O)N[C@@H](CCC(=O)O)C(=O)N2CCN(C(=O)OCC)CC2)nc2ccccc12 [Example 75, 4-[(S)-4-Carboxy-2-({4-[2-((2S,4R)-2-ethoxycarbonyl-4-hydroxy-pyrrolidin-1-yl)-2-oxo-ethoxy]-quinoline-2-carbonyl}-amino)-butyryl]-piperazine-1-carboxylic acid ethyl ester] | 190 nM | 
CCOC(=O)N1CCN(C(=O)[C@H](CCC(=O)O)NC(=O)c2cc(OCC(=O)N3CCC[C@H]3C(=O)NCC(F)(F)F)c3ccccc3n2)CC1 [Example 121, 4-{(S)-4-Carboxy-2-[(4-{2-oxo-2-[(S)-2-(2,2,2-trifluoro-ethylcarbamoyl)-pyrrolidin-1-yl]-ethoxy}-quinoline-2-carbonyl)-amino]-butyryl}-piperazine-1-carboxylic acid ethyl ester] |  | IC50 (human P2Y12 receptor): 67 nM
CCOC(=O)N1CCN(C(=O)[C@H](CCC(=O)O)NC(=O)c2cc(OCC(=O)N3CCC[C@H]3C(=O)NC3CCC3)c3cc(F)c(F)cc3n2)CC1 [Example 196, 4-[(S)-4-Carboxy-2-({4-[2-((S)-2-cyclobutylcarbamoyl-pyrrolidin-1-yl)-2-oxo-ethoxy]-6,7-difluoro-quinoline-2-carbonyl}-amino)-butyryl]-piperazine-1-carboxylic acid ethyl ester] |  | IC50 (human P2Y12 receptor): 65 nM

Second part, led by results:

IC50 ([1]; Platelet, 0.1 h) | Compound | also measured
30 nM | CCOC(=O)N1CCN(C(=O)[C@H](CCC(=O)O)NC(=O)c2cc(O[C@H](C)C(=O)N3CCC[C@H]3C(=O)NC3CCCC3)c3ccc(C)cc3n2)CC1 [Example 294, 4-[(S)-4-Carboxy-2-({4-[(R)-2-((S)-2-cyclopentylcarbamoyl-pyrrolidin-1-yl)-1-methyl-2-oxo-ethoxy]-7-methyl-quinoline-2-carbonyl}-amino)-butyryl]-piperazine-1-carboxylic acid ethyl ester] | 
290 nM | CCOC(=O)N1CCN(C(=O)[C@H](CCC(=O)O)NC(=O)c2cc(OCC(=O)N3CCCC3c3ccco3)c3ccccc3n2)CC1 (stereo partly drawn) [Example 317, 4-[(S)-4-Carboxy-2-({4-[2-(2-furan-2-yl-pyrrolidin-1-yl)-2-oxo-ethoxy]-quinoline-2-carbonyl}-amino)-butyryl]-piperazine-1-carboxylic acid ethyl ester] | 
30 nM | CCCCOC(=O)N1CCN(C(=O)CNC(=O)c2cc(OCC(=O)N3CCC[C@H]3C(=O)NC3CCC3)c3ccc(C)cc3n2)CC1 [Example 435, 4-[2-({4-[2-((S)-2-Cyclobutylcarbamoyl-pyrrolidin-1-yl)-2-oxo-ethoxy]-7-methyl-quinoline-2-carbonyl}-amino)-acetyl]-piperazine-1-carboxylic acid butyl ester] | 
80 nM | CCCCOC(=O)N1CCN(C(=O)[C@H](CCC(=O)O)NC(=O)c2cc(OCC(=O)N3CCC[C@H]3c3ccccc3)c3ccc(C)cc3n2)CC1 [Example 481, 4-[(S)-4-Carboxy-2-({7-methyl-4-[2-oxo-2-((S)-2-phenyl-pyrrolidin-1-yl)-ethoxy]-quinoline-2-carbonyl}-amino)-butyryl]-piperazine-1-carboxylic acid butyl ester] | 
120 nM | CCCCOC(=O)N1CCN(C(=O)[C@H](CCOC)NC(=O)c2cc(OCC(=O)N3CCC[C@H]3C(=O)NC3CCC3)c3ccc(C)cc3n2)CC1 [Example 521, 4-[(S)-2-({4-[2-((S)-2-Cyclobutylcarbamoyl-pyrrolidin-1-yl)-2-oxo-ethoxy]-7-methyl-quinoline-2-carbonyl}-amino)-4-methoxy-butyryl]-piperazine-1-carboxylic acid butyl ester] | 
20 nM | CCCCOC(=O)N1CCN(C(=O)CNC(=O)c2cc(OCC(=O)N3CCC[C@H]3C(=O)NC3CCCC3)c3ccc(C)cc3n2)CC1 [Example 594, 4-[2-({4-[2-((S)-2-Cyclopentylcarbamoyl-pyrrolidin-1-yl)-2-oxo-ethoxy]-7-methyl-quinoline-2-carbonyl}-amino)-acetyl]-piperazine-1-carboxylic acid butyl ester] | 
0.6 nM | CCCCOC(=O)N1CCN(C(=O)CNC(=O)c2cc(OCC(=O)N3C[C@H](O)C[C@H]3C(=O)NC3CCC3)c3ccc(C)cc3n2)CC1 [Example 689, 4-[2-({4-[2-((2S,4R)-2-Cyclobutylcarbamoyl-4-hydroxy-pyrrolidin-1-yl)-2-oxo-ethoxy]-7-methyl-quinoline-2-carbonyl}-amino)-acetyl]-piperazine-1-carboxylic acid butyl ester] | 
77 nM | CCCCOC(=O)N1CCN(C(=O)[C@H](CCc2nnn(C)n2)NC(=O)c2cc(OCC(=O)N3CCC[C@H]3C(=O)NC3CCC3)c3ccc(C)cc3n2)CC1 [Example 693, 4-[(S)-2-({4-[2-((S)-2-Cyclobutylcarbamoyl-pyrrolidin-1-yl)-2-oxo-ethoxy]-7-methyl-quinoline-2-carbonyl}-amino)-4-(2-methyl-2H-tetrazol-5-yl)-butyryl]-piperazine-1-carboxylic acid butyl ester] | 
